{
  "source": "patent US7432392B2",
  "about": "“Ester derivatives and medical use thereof” (Japan Tobacco Inc., priority 2003, dated 2008)",
  "key": {"[1]": {"target": "T1, Microsomal triglyceride transfer protein (MTP) from bovine liver (Bos taurus, UniProt P55156)", "T1 construct": "the purified MTP was used for the test; from tissue; host or cells: bovine liver", "T1 sequence (P55156 12-887)": "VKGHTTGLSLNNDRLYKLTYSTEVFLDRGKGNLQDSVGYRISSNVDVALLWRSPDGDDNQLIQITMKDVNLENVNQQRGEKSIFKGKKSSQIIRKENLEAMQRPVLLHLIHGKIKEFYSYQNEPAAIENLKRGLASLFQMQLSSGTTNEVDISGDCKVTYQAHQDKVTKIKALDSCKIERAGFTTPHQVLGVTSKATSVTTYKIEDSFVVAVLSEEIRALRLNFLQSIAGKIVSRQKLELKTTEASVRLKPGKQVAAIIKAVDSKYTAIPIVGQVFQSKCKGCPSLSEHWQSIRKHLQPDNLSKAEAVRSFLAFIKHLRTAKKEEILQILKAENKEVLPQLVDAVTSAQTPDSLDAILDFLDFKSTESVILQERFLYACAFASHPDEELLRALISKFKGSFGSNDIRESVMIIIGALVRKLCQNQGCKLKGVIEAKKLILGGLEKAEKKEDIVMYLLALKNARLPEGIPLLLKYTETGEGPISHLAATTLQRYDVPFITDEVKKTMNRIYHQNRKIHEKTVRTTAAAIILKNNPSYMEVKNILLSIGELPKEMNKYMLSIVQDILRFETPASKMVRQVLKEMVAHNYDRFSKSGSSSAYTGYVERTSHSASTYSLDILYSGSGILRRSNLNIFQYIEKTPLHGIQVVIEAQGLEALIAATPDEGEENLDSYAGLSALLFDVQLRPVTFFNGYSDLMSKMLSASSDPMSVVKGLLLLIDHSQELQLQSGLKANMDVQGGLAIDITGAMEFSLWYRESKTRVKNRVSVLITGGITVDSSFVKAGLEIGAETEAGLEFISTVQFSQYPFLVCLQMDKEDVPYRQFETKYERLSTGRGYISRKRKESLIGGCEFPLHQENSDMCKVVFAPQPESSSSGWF", "T1 sequence (P05307 21-510 partner)": "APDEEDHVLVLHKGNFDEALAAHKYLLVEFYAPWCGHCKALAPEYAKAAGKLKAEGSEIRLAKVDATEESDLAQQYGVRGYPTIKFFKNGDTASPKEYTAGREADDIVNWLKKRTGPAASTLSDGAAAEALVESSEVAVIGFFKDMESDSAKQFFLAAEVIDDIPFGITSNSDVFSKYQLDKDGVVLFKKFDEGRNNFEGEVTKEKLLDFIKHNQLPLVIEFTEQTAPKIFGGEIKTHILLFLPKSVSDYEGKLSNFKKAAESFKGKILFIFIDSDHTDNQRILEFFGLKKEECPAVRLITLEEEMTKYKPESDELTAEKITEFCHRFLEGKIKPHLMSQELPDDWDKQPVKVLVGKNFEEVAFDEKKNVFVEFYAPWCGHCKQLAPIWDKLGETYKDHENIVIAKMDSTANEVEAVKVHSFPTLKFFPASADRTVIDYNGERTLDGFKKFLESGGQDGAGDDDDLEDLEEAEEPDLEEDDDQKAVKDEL", "assay": "Inhibition of interliposomal triglyceride (TG) transfer activity by MTP", "type": "biochemical", "conditions": "MTP-mediated TG transfer between donor and acceptor liposomes, 37° C., one hour", "in_short": "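Partially purified bovine liver MTP (DEAE chromatography) was incubated 1 h at 37° C with ^14C-triolein donor SUV liposomes and unlabeled acceptor liposomes in pH 7.4 Tris buffer with 0.5% BSA. Donor was removed with DEAE cellulose and acceptor radioactivity counted. IC50 came from blank-corrected inhibition relative to DMSO.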"}, "[2]": {"assay": "Metabolic stability test in small intestine S9 (hamster)", "type": "in vitro ADME", "conditions": "Hamster small intestine S9, 2 mg protein/mL, 37° C.", "method": "Human and hamster liver S9 (final concentration: 2 mg protein/mL), and human and hamster small intestine S9 (final concentration: 2 mg protein/mL) were each suspended in 100 mM potassium phosphate buffer (pH 7.4, containing β-nicotinamide adenine dinucleotide phosphate: 1.3 mM, D-glucose-6-phosphate: 3.3 mM, magnesium chloride: 3.3 mM, and glucose-6-phosphate dehydrogenase: 0.4 U/mL). The suspensions were mixed with a solution of a sample (Example 1) in DMSO. The solutions were incubated at 37° C. for 0, 10 and 60 minutes, and an organic solvent was added thereto. The solutions were centrifuged, and the concentration of the sample (unchanged form) in the supernatant was determined by high performance liquid chromatography/mass spectrometry (LC/MS). Based on the data obtained, remaining rate (%) was calculated according to the following equation. Remaining rate(%)=amount of sample 10 or 60 minutes after incubation/amount of sample at zero time after incubation×100"}},
  "data": [
    {"smiles": "CCOC(=O)C(COC(=O)Cc1ccc(NC(=O)c2ccccc2-c2ccc(C(F)(F)F)cc2)c(OC(C)=O)c1)(C(=O)OCC)c1ccccc1", "note": "[Example 1, 2-(2-{3-acetoxy-4-[(4′-trifluoromethyl-biphenyl-2-carbonyl)amino]phenyl}acetoxymethyl)-2-phenylmalonic acid diethyl ester]", "values": [
      {"measurement": "IC50", "setting": "[1]", "result": "< 10", "unit": "nM"},
      {"measurement": "Remaining rate (%) after 10 minutes", "setting": "[2]; 10 minutes", "result": 4.1, "unit": "%"},
      {"measurement": "Remaining rate (%) after 60 minutes", "setting": "[2]; 60 minutes", "result": 0.0, "unit": "%"}
    ]}
  ]
}
